According to patent publication US11090304B2 (Amgen Inc., priority 2018, dated 2021):
Read-outs that look alike come from different tables or passages of the source.

What was measured:
[1] = system: Phosphorylation of ERK1/2 in MIA PaCa-2 cells; assay: Phospho-ERK1/2 MSD assay in MIA PaCa-2 cells; type: cell-based; settings: read-out: p-ERK IC50 (2 h; MIA PaCa-2), 2 h compound treatment
Protocol: For compounds in Table 89, the following assay conditions were employed:
Phospho-ERK1/2 MSD Assay:
Sixteen hours prior to compound treatment, MIA PaCa-2 or A549 cells were seeded in 96-well cell culture plates at a density of 25,000 cells/well and incubated at 37° C., 5% CO2. A compound dose-response titration was diluted in growth media, added to appropriate wells of a cell culture plate, and then incubated at 37° C., 5% CO2 for 2 or 4 hours (see Table 15). Following compound treatment, cells were stimulated with 10 ng/mL EGF (Roche 11376454001) for 10 min, washed with ice-cold Dulbecco's phosphate-buffered saline, no Ca^2+ or Mg^2+ (ThermoFisher Scientific 14190144), and then lysed in RIPA buffer (50 mM Tris-HCl pH 7.5, 1% Igepal, 0.5% sodium deoxycholate, 150 mM NaCl, and 0.5% sodium dodecyl sulfate) containing protease inhibitors (Roche 4693132001) and phosphatase inhibitors (Roche 4906837001). Phosphorylation of ERK1/2 in compound-treated lysates was assayed using Phospho-ERK1/2 Whole Cell Lysate kits (Meso Scale Discovery K151DWD) according to the manufacturer's protocol. Assay plates were read on a Meso Scale Discovery Sector Imager 6000, and data were analyzed using a 4-parameter logistic model to calculate IC50 values.

[2] = target: GDP-bound KRAS protein (aa 1-169), containing both G12C and C118A amino acid substitutions (Homo sapiens, UniProt P01116, C118A/G12C); assay: Coupled nucleotide exchange assay (SOS-mediated, AlphaScreen); type: biochemical; settings: 5 min compound pre-incubation
Sequence of GDP-bound KRAS protein (aa 1-169), containing both G12C and C118A amino acid substitutions (P01116 1-169 isoform P01116-2 G12C/C118A): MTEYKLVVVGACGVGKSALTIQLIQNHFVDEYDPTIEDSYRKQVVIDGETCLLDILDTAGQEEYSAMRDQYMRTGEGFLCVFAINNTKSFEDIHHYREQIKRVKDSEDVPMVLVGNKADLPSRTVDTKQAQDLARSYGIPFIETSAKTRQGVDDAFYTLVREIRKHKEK

IC50 ([1]; Homo sapiens, MIA PaCa-2, 2 h) [nM]	Coupled exchange IC50 (5 min) [2]	IC50 [1] [nM]	IC50 ([2]; read-out: Coupled exchange IC50 (5 min)) [nM]	SMILES
		14	12	C=CC(=O)N1CCN(c2nc(=O)n(-c3c(C)ccnc3C(C)C)c3nc(-c4c(N)cccc4F)c(Cl)cc23)[C@@H](C)C1 (atropisomer, axis not shown; (M)) [Example 73-1, (M)-7-(2-Amino-6-fluorophenyl)-6-chloro-1-(4-methyl-2-(2-propanyl)-3-pyridinyl)-4-((2S)-2-methyl-4-(2-propenoyl)-1-piperazinyl)pyrido[2,3-d]pyrimidin-2(1H)-one]
101	0.067 | nda μM			C=CC(=O)N1CCN(c2nc(=O)n(-c3c(C)ccnc3C(C)C)c3nc(-c4cc(F)ccc4F)c(Cl)cc23)[C@@H](C)C1 (atropisomer, axis not shown; (M)) [Example 73-2, (M)-6-chloro-7-(2,5-difluorophenyl)-1-(4-methyl-2-(2-propanyl)-3-pyridinyl)-4-((2S)-2-methyl-4-(2-propenoyl)-1-piperazinyl)pyrido[2,3-d]pyrimidin-2(1H)-one]
40	0.031 | nda μM			C=CC(=O)N1CCN(c2nc(=O)n(-c3c(C)ccnc3C(C)C)c3nc(-c4cc(C)ccc4F)c(Cl)cc23)[C@@H](C)C1 (atropisomer, axis not shown; (M)) [Example 73-3, (M)-6-chloro-7-(2-fluoro-5-methylphenyl)-1-(4-methyl-2-(2-propanyl)-3-pyridinyl)-4-((2S)-2-methyl-4-(2-propenoyl)-1-piperazinyl)pyrido[2,3-d]pyrimidin-2(1H)-one]
62	0.047 | nda μM			C=CC(=O)N1CCN(c2nc(=O)n(-c3c(C)ccnc3C(C)C)c3nc(-c4cc(Cl)ccc4F)c(Cl)cc23)[C@@H](C)C1 (atropisomer, axis not shown; (M)) [Example 73-4, (M)-6-chloro-7-(5-chloro-2-fluorophenyl)-1-(4-methyl-2-(2-propanyl)-3-pyridinyl)-4-((2S)-2-methyl-4-(2-propenoyl)-1-piperazinyl)pyrido[2,3-d]pyrimidin-2(1H)-one]
228	0.184 | nda μM			C=CC(=O)N1CCN(c2nc(=O)n(-c3c(C)ccnc3C(C)C)c3nc(-c4cc(C#N)ccc4F)c(Cl)cc23)[C@@H](C)C1 (atropisomer, axis not shown; (M)) [Example 73-5, (M)-3-(6-chloro-1-(4-methyl-2-(2-propanyl)-3-pyridinyl)-4-((2S)-2-methyl-4-(2-propenoyl)-1-piperazinyl)-2-oxo-1,2-dihydropyrido[2,3-d]pyrimidin-7-yl)-4-fluorobenzonitrile]
104	0.059 | nda μM			C=CC(=O)N1CCN(c2nc(=O)n(-c3c(C)ccnc3C(C)C)c3nc(-c4cc(OC)ccc4F)c(Cl)cc23)[C@@H](C)C1 (atropisomer, axis not shown; (M)) [Example 73-6, (M)-6-chloro-7-(2-fluoro-5-methoxyphenyl)-1-(4-methyl-2-(2-propanyl)-3-pyridinyl)-4-((2S)-2-methyl-4-(2-propenoyl)-1-piperazinyl)pyrido[2,3-d]pyrimidin-2(1H)-one]
375	0.241 | nda μM			C=CC(=O)N1CCN(c2nc(=O)n(-c3c(C)ccnc3C(C)C)c3nc(-c4cc(OC(F)(F)F)ccc4F)c(Cl)cc23)[C@@H](C)C1 (atropisomer, axis not shown; (M)) [Example 73-7, (M)-6-chloro-7-(2-fluoro-5-(trifluoromethoxy)phenyl)-1-(4-methyl-2-(2-propanyl)-3-pyridinyl)-4-((2S)-2-methyl-4-(2-propenoyl)-1-piperazinyl)pyrido[2,3-d]pyrimidin-2(1H)-one]
653	0.236 | nda μM			C=CC(=O)N1CCN(c2nc(=O)n(-c3c(C)ccnc3C(C)C)c3nc(-c4cc(C(F)(F)F)ccc4F)c(Cl)cc23)[C@@H](C)C1 (atropisomer, axis not shown; (M)) [Example 73-8, (M)-6-chloro-7-(2-fluoro-5-(trifluoromethyl)phenyl)-1-(4-methyl-2-(2-propanyl)-3-pyridinyl)-4-((2S)-2-methyl-4-(2-propenoyl)-1-piperazinyl)pyrido[2,3-d]pyrimidin-2(1H)-one]
281	0.06 | nda μM			C=CC(=O)N1CCN(c2nc(=O)n(-c3c(C)ccnc3C(C)C)c3nc(-c4cc(C5CC5)ccc4F)c(Cl)cc23)[C@@H](C)C1 (atropisomer, axis not shown; (M)) [Example 73-9, (M)-6-chloro-7-(5-cyclopropyl-2-fluorophenyl)-1-(4-methyl-2-(2-propanyl)-3-pyridinyl)-4-((2S)-2-methyl-4-(2-propenoyl)-1-piperazinyl)pyrido[2,3-d]pyrimidin-2(1H)-one]
544	0.385 | nda μM			C=CC(=O)N1CCN(c2nc(=O)n(-c3c(C)ccnc3C(C)C)c3nc(-c4cc(C(=O)NC5CC5)ccc4F)c(Cl)cc23)[C@@H](C)C1 (atropisomer, axis not shown; (M)) [Example 73-10, (M)-3-(6-chloro-1-(4-methyl-2-(2-propanyl)-3-pyridinyl)-4-((2S)-2-methyl-4-(2-propenoyl)-1-piperazinyl)-2-oxo-1,2-dihydropyrido[2,3-d]pyrimidin-7-yl)-N-cyclopropyl-4-fluorobenzamide]

The remaining lines, values behind:

SMILES	IC50 ([1]; Homo sapiens, MIA PaCa-2, 2 h) [nM]	Coupled exchange IC50 (5 min) [2]	IC50 [1] [nM]	IC50 ([2]; read-out: Coupled exchange IC50 (5 min)) [nM]
C=CC(=O)N1CCN(c2nc(=O)n(-c3c(C)ccnc3C(C)C)c3nc(-c4c(F)ccc(F)c4O)c(F)cc23)[C@@H](C)C1 (atropisomer, axis not shown; (M)) [Example 72-9, (M)-7-(3,6-difluoro-2-hydroxyphenyl)-6-fluoro-1-(4-methyl-2-(2-propanyl)-3-pyridinyl)-4-((2S)-2-methyl-4-(2-propenoyl)-1-piperazinyl)pyrido[2,3-d]pyrimidin-2(1H)-one]	554	0.191 | nda μM		
C=CC(=O)N1CCN(c2nc(=O)n(-c3c(C)ccnc3C(C)C)c3nc(-c4c(F)ccc(C)c4O)c(F)cc23)[C@@H](C)C1 (atropisomer, axis not shown; (M)) [Example 72-10, (M)-6-fluoro-7-(6-fluoro-2-hydroxy-3-methylphenyl)-1-(4-methyl-2-(2-propanyl)-3-pyridinyl)-4-((2S)-2-methyl-4-(2-propenoyl)-1-piperazinyl)pyrido[2,3-d]pyrimidin-2(1H)-one]	150	0.158 | nda μM		
C=CC(=O)N1CCN(c2nc(=O)n(-c3c(C)ccnc3C(C)C)c3nc(-c4c(N)cccc4F)c(F)cc23)[C@@H](C)C1 (atropisomer, axis not shown; (M)) [Example 72-11, (M)-7-(2-amino-6-fluorophenyl)-6-fluoro-1-(4-methyl-2-(2-propanyl)-3-pyridinyl)-4-((2S)-2-methyl-4-(2-propenoyl)-1-piperazinyl)pyrido[2,3-d]pyrimidin-2(1H)-one]	44	0.039 | nda μM		
C=CC(=O)N1C[C@H](C)N(c2nc(=O)n(-c3c(C)ccnc3C(C)C)c3nc(-c4c(N)cccc4F)c(F)cc23)[C@@H](C)C1 (atropisomer, axis not shown; (M)) [Example 72-13, (M)-7-(2-amino-6-fluorophenyl)-4-((2S,6S)-2,6-dimethyl-4-(2-propenoyl)-1-piperazinyl)-6-fluoro-1-(4-methyl-2-(2-propanyl)-3-pyridinyl)pyrido[2,3-d]pyrimidin-2(1H)-one]	12	0.021 | nda μM		
C=CC(=O)N1C[C@H](C)N(c2nc(=O)n(-c3c(C)ccnc3C(C)C)c3nc(-c4ccccc4F)c(F)cc23)[C@@H](C)C1 (atropisomer, axis not shown; (M)) [Example 72-14, (M)-4-((2S,6S)-2,6-dimethyl-4-(2-propenoyl)-1-piperazinyl)-6-fluoro-7-(2-fluorophenyl)-1-(4-methyl-2-(2-propanyl)-3-pyridinyl)pyrido[2,3-d]pyrimidin-2(1H)-one]	55	0.081 | nda μM		
C=CC(=O)N1C[C@@H](C)N(c2nc(=O)n(-c3c(C)ccnc3C(C)C)c3nc(-c4c(N)cccc4F)c(Cl)cc23)[C@@H](C)C1 (atropisomer, axis not shown; (M)) [Example 73-12, (M)-7-(2-amino-6-fluorophenyl)-6-chloro-4-(cis-2,6-dimethyl-4-(2-propenoyl)-1-piperazinyl)-1-(4-methyl-2-(2-propanyl)-3-pyridinyl)pyrido[2,3-d]pyrimidin-2(1H)-one]	10	0.01 | nda μM		
C=CC(=O)N1C[C@@H](C)N(c2nc(=O)n(-c3c(C)ccnc3C(C)C)c3nc(-c4c(O)cccc4F)c(Cl)cc23)[C@@H](C)C1 (atropisomer, axis not shown; (M)) [Example 73-13, (M)-6-chloro-4-(cis-2,6-dimethyl-4-(2-propenoyl)-1-piperazinyl)-7-(2-fluoro-6-hydroxyphenyl)-1-(4-methyl-2-(2-propanyl)-3-pyridinyl)pyrido[2,3-d]pyrimidin-2(1H)-one]	17	0.023 | nda μM		
